Test systems include HT29 colon; SF-539 CNS; K-562 leukemia; DU-145 prostate; A549 NSCLC; SN12C renal; UO-31 renal; NCI-H226 lung; HS 578T breast; M14 melanoma.
Holding throughout (assay): DTP human tumour cell line panel, 48 h

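Growth conditions: 96-well plates. Treatment: test compound, 48 hours, 5 concentrations. Analysis: linear interpolation between bracketing concentrations; unreached endpoints set to highest concentration. GI50 is the concentration that inhibits growth by half. Definition used: TGI = concentration required for complete inhibition of growth.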 Where a SMILES comes first, the peptide text is derived from it. The star is where a group is joined. Fmoc = O=C(OCC1c2ccccc2-c2ccccc21)*; OBn = c1ccc(CO*)cc1; tBu = CC(C)(C)*

For the compound `CC(OC(C)(C)C)C(NC(=O)OCC1c2ccccc2-c2ccccc21)C(=O)NC(Cc1ccccc1)C(=O)OCc1ccccc1` (configuration not stated) (Fmoc-Thr(tBu)-Phe-OBn; configuration not given here), the TGI with HT29 colon, in the assay on SF-539 CNS, in the assay with K-562 leukemia, with DU-145 prostate, with A549 NSCLC and with SN12C renal was greater than 100 µM each time. Moreover, the total growth inhibition concentration (TGI) in the assay on UO-31 renal, in the assay with NCI-H226 lung, in the assay with HS 578T breast and in the assay with M14 melanoma was greater than 100 µM throughout.
`CC(=O)CCN1CC2CN=NC2(C#N)C1` (configuration not stated): the TGI is greater than 100 µM in the assay on HT29 colon; greater than 100 µM in the assay with SF-539 CNS; greater than 48.2 µM with K-562 leukemia; greater than 100 µM in the assay on DU-145 prostate; greater than 100 µM in the assay on A549 NSCLC; greater than 100 µM in the assay with SN12C renal. For the same compound, the TGI in the assay with UO-31 renal is greater than 100 µM; in the assay with NCI-H226 lung it was greater than 70 µM; with HS 578T breast it was greater than 95.7 µM; in the assay with M14 melanoma, greater than 100 µM. Besides, the GI50 with SF-539 CNS and with M14 melanoma was greater than 100 µM in each case.
In the case of `CC1CC(C)(C)CC(OCCN2CCCCC2)(c2ccccc2)C1` (configuration not stated), the TGI with HT29 colon was determined as 9.92 µM; in the assay on SF-539 CNS, 29.4 µM; in the assay with K-562 leukemia, 28.7 µM; in the assay with DU-145 prostate, 19.8 µM; in the assay with A549 NSCLC, 24.6 µM; with SN12C renal, 25.4 µM. The TGI with UO-31 renal was 20.6 µM; in the assay with NCI-H226 lung, 38.3 µM; in the assay on HS 578T breast it was 32.4 µM; with M14 melanoma, 14.4 µM.
Consider `CCOC(=O)CSc1nc(-c2ccc(Cl)cc2)c(C#N)c(=O)[nH]1`, for which the TGI with HT29 colon, in the assay with SF-539 CNS, with K-562 leukemia, in the assay on DU-145 prostate, in the assay with A549 NSCLC and with SN12C renal was greater than 100 µM in each case. Besides, the TGI in the assay on UO-31 renal, with NCI-H226 lung, in the assay with HS 578T breast and in the assay on M14 melanoma was greater than 100 µM in each case.
In the case of `Nc1ncnc2c1ncn2CCCNO`, the TGI in the assay with HT29 colon, in the assay on SF-539 CNS, in the assay on K-562 leukemia, in the assay with DU-145 prostate, with A549 NSCLC and with SN12C renal was greater than 100 µM throughout. Besides, the TGI in the assay with UO-31 renal, in the assay with NCI-H226 lung, with HS 578T breast and with M14 melanoma was greater than 100 µM throughout.
Turning to `NCC1OC(OC2C(N)CC(N)C(O)C2OC2OC(CO)C(O)C2O)C(N)C(O)C1O` (configuration not stated), the TGI in the assay on HT29 colon, in the assay with SF-539 CNS, in the assay on K-562 leukemia, in the assay with DU-145 prostate, with A549 NSCLC and in the assay on SN12C renal was greater than 100 µM throughout. Besides, the TGI in the assay with UO-31 renal, in the assay on NCI-H226 lung, in the assay on HS 578T breast and in the assay with M14 melanoma was greater than 100 µM each time.
With `CCOC(=O)C(NC(=O)c1ccccc1)(Nc1ccc(S(=O)(=O)Nc2cc(C)on2)cc1)C(F)(F)F` (configuration not stated), the TGI with HT29 colon, in the assay with SF-539 CNS, with K-562 leukemia, in the assay on DU-145 prostate, in the assay on A549 NSCLC and in the assay on SN12C renal was greater than 100 µM each time. Moreover, the TGI in the assay with UO-31 renal, with NCI-H226 lung, in the assay with HS 578T breast and in the assay on M14 melanoma was greater than 100 µM throughout.
For `O=c1[nH]c2ccccc2c(=O)n1/N=C\c1ccccc1O`, the TGI in the assay with HT29 colon, in the assay with SF-539 CNS, in the assay on K-562 leukemia, with DU-145 prostate, in the assay on A549 NSCLC and in the assay on SN12C renal was greater than 100 µM in each case. The TGI with UO-31 renal, with NCI-H226 lung, with HS 578T breast and in the assay on M14 melanoma was greater than 100 µM each time.
Turning to `CCOc1ccc(Nc2nc(N)nc(N)c2N=O)cc1`, the TGI in the assay with HT29 colon, with SF-539 CNS, with K-562 leukemia, with DU-145 prostate, in the assay on A549 NSCLC and with SN12C renal was greater than 100 µM in each case. Further, the TGI in the assay with UO-31 renal was 83.3 µM; in the assay with NCI-H226 lung, greater than 100 µM; in the assay with HS 578T breast, greater than 100 µM; with M14 melanoma, greater than 100 µM.
Take `c1ccc(CN2CCC(CNc3ncnc4ccccc34)C2)cc1` (configuration not stated): the TGI in the assay with HT29 colon, with SF-539 CNS, in the assay with K-562 leukemia, in the assay with DU-145 prostate, in the assay with A549 NSCLC and in the assay with SN12C renal was greater than 100 µM in each case. Further, the TGI in the assay on UO-31 renal is greater than 100 µM; with NCI-H226 lung it was greater than 100 µM; in the assay with HS 578T breast, greater than 100 µM; in the assay on M14 melanoma, 35.4 µM.
Regarding `CCOC(=O)NC(Nc1ccc(C(=O)O)cc1)(C(F)(F)F)C(F)(F)F`, the TGI with HT29 colon, in the assay on SF-539 CNS, with K-562 leukemia, with DU-145 prostate, in the assay with A549 NSCLC and in the assay on SN12C renal was greater than 100 µM throughout. In addition, the TGI with UO-31 renal, in the assay on NCI-H226 lung, in the assay with HS 578T breast and with M14 melanoma was greater than 100 µM each time.
For the compound `COC(=O)c1sc2c(Cl)c(Cl)sc2c1Cl`, the TGI in the assay with HT29 colon, in the assay on SF-539 CNS, in the assay with K-562 leukemia, in the assay with DU-145 prostate, in the assay with A549 NSCLC and with SN12C renal was greater than 100 µM in each case. Besides, the TGI in the assay on UO-31 renal, with NCI-H226 lung, in the assay on HS 578T breast and in the assay with M14 melanoma was greater than 100 µM each time.

A word on the TGI: it is the concentration at which net growth stops. A high value points to less potent growth arrest. The GI50 is the concentration giving 50% growth inhibition.

Source of the values: PubChem BioAssay (NCI).
